From article PMC3676426 (European journal of clinical pharmacology, 2013)
Where two headings read alike, the source gives them in different places.

Legend:
[1] = format: in vivo, human; conditions: atorvastatin 40 mg for five days, CGC/CGC, CGC/TTT
[2] = both, human, in vivo, po, 100 mg
[3] = mainly through active tubular secretion; cited from earlier work
[4] = single 600 mg dose of cyclosporine; cited from earlier work
clinical = conditions: both, human, in vivo, 100 mg; for AUC(0-inf): AUC0-∞; for CL renal: CLR; for half-life: t1/2
[5] = atorvastatin 80 mg; cited from earlier work
[6] = simvastatin 40 mg co-administered; cited from earlier work
[7] = simvastatin 80 mg; cited from earlier work

CC(C)c1c(C(=O)Nc2ccccc2O)c(-c2ccccc2)c(-c2ccc(F)cc2)n1CCC1CC(O)CC(=O)O1 (stereo not drawn) [2-hydroxyatorvastatin lactone]
influence of ABCB1 diplotype on pharmacokinetic parameters [1]: not significantly affected

CC(C)c1c(C(=O)Nc2ccccc2O)c(-c2ccccc2)c(-c2ccc(F)cc2)n1CCC(O)CC(O)CC(=O)O (stereo not drawn) [2-hydroxyatorvastatin]
influence of ABCB1 diplotype on pharmacokinetic parameters [1]: not significantly affected

CC(C)c1c(C(=O)Nc2ccc(O)cc2)c(-c2ccccc2)c(-c2ccc(F)cc2)n1CCC1CC(O)CC(=O)O1 (stereo not drawn) [4-hydroxyatorvastatin lactone]
influence of ABCB1 diplotype on pharmacokinetic parameters [1]: not significantly affected

CC(C)c1c(C(=O)Nc2ccc(O)cc2)c(-c2ccccc2)c(-c2ccc(F)cc2)n1CC[C@@H](O)C[C@@H](O)CC(=O)O [4-hydroxyatorvastatin]
influence of ABCB1 diplotype on pharmacokinetic parameters [1]: not significantly affected

CC(C)c1c(C(=O)Nc2ccccc2)c(-c2ccccc2)c(-c2ccc(F)cc2)n1CC[C@@H]1C[C@@H](O)CC(=O)O1 [Atorvastatin lactone, atorvastatin lactone]
influence of ABCB1 diplotype on pharmacokinetic parameters [1]: did not differ significantly

N[C@@H](CC(=O)N1CCn2c(nnc2C(F)(F)F)C1)Cc1cc(F)c(F)cc1F [Sitagliptin, sitagliptin]
Cmax [2]: 438 ± 152 ng/mL | drug excreted unchanged in the urine [3]: about 80% | effect of cyclosporine on Cmax [4]: modestly increased | effect of cyclosporine on overall plasma exposure [4]: did not have a significant effect | AUC(0-inf) (clinical): 3220 ng·h/mL | CL renal (clinical): 254 mL/min | Cmax (clinical): 399 ng/mL | half-life (clinical): 7.4 ± 2.5 h | AUC(0-t) (clinical; po, AUC0-24): 3230 ± 1220 ng·h/mL | AUC(0-inf) (clinical; po): 3640 ± 1440 ng·h/mL | CL renal (clinical; po): 254 ± 176 mL/min | Cmax (clinical; po): 454 ± 180 ng/mL | half-life (clinical; po): 7.3 ± 3 h

Cn1c(=O)cc(N2CCC[C@@H](N)C2)n(Cc2ccccc2C#N)c1=O [alogliptin]
effect of atorvastatin on multiple-dose pharmacokinetics [5]: did not alter

N#C[C@@H]1C[C@@H]2C[C@@H]2N1C(=O)[C@@H](N)C12CC3CC(CC(O)(C3)C1)C2 [saxagliptin]
increase of AUC by simvastatin [6]: 12%

N#C[C@@H]1CCCN1C(=O)CNC12CC3CC(CC(O)(C3)C1)C2 [vildagliptin]
effect of simvastatin on multiple-dose pharmacokinetics [7]: did not alter
